Source: patent publication US20120245137A1 (Zalicus Pharmaceuticals Ltd., priority 2009, published 2012)

How the values were obtained:
Assay type in all cases: cell-based
[1] = target: N-type calcium channel subunits (α1B, α2δ, and β3a) (Homo sapiens, UniProt Q00975); experiment: Block of Cav2.2 channel, whole cell voltage clamp, manual and PatchXpress; settings: Table 5; table follows Assay Example 3 (whole cell voltage clamp / PatchXpress); assay not given
Outline: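 Percent block taken as current amplitude ratio with versus without compound, applied in rising doses; IC50 fitted where one cell received multiple doses. Protocol: 50 ms pulses to +20 mV at 0.067 Hz from […] or −90 mV holding; P/n leak subtraction, no junction-potential correction; manual and PatchXpress recordings.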

[2] = target: human α1H T-type channels (Homo sapiens, UniProt O95180); experiment: T-type calcium channel block, whole cell patch clamp, α1H; settings: HEK cells stably expressing human α1H; mainly non-inactivated protocol; values above 10,000 nM represented as 10000
Outline: (§1)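 Read-out: current block in whole-cell patch clamp of HEK 293 cells stably expressing human α1G or α1H subunits. Compounds were perfused locally in external solution (0.1-0.01% DMSO) under resting and inactivating voltage protocols.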

[3] = target: human α1G T-type channels (Homo sapiens, UniProt O43497); experiment: T-type calcium channel block, whole cell patch clamp, α1G; settings: HEK cells stably expressing human α1G; mainly non-inactivated protocol; values above 10,000 nM represented as 10000
Outline: as §1

N-type calcium channel subunits (α1B, α2δ, and β3a), sequence (Q00975 whole entry): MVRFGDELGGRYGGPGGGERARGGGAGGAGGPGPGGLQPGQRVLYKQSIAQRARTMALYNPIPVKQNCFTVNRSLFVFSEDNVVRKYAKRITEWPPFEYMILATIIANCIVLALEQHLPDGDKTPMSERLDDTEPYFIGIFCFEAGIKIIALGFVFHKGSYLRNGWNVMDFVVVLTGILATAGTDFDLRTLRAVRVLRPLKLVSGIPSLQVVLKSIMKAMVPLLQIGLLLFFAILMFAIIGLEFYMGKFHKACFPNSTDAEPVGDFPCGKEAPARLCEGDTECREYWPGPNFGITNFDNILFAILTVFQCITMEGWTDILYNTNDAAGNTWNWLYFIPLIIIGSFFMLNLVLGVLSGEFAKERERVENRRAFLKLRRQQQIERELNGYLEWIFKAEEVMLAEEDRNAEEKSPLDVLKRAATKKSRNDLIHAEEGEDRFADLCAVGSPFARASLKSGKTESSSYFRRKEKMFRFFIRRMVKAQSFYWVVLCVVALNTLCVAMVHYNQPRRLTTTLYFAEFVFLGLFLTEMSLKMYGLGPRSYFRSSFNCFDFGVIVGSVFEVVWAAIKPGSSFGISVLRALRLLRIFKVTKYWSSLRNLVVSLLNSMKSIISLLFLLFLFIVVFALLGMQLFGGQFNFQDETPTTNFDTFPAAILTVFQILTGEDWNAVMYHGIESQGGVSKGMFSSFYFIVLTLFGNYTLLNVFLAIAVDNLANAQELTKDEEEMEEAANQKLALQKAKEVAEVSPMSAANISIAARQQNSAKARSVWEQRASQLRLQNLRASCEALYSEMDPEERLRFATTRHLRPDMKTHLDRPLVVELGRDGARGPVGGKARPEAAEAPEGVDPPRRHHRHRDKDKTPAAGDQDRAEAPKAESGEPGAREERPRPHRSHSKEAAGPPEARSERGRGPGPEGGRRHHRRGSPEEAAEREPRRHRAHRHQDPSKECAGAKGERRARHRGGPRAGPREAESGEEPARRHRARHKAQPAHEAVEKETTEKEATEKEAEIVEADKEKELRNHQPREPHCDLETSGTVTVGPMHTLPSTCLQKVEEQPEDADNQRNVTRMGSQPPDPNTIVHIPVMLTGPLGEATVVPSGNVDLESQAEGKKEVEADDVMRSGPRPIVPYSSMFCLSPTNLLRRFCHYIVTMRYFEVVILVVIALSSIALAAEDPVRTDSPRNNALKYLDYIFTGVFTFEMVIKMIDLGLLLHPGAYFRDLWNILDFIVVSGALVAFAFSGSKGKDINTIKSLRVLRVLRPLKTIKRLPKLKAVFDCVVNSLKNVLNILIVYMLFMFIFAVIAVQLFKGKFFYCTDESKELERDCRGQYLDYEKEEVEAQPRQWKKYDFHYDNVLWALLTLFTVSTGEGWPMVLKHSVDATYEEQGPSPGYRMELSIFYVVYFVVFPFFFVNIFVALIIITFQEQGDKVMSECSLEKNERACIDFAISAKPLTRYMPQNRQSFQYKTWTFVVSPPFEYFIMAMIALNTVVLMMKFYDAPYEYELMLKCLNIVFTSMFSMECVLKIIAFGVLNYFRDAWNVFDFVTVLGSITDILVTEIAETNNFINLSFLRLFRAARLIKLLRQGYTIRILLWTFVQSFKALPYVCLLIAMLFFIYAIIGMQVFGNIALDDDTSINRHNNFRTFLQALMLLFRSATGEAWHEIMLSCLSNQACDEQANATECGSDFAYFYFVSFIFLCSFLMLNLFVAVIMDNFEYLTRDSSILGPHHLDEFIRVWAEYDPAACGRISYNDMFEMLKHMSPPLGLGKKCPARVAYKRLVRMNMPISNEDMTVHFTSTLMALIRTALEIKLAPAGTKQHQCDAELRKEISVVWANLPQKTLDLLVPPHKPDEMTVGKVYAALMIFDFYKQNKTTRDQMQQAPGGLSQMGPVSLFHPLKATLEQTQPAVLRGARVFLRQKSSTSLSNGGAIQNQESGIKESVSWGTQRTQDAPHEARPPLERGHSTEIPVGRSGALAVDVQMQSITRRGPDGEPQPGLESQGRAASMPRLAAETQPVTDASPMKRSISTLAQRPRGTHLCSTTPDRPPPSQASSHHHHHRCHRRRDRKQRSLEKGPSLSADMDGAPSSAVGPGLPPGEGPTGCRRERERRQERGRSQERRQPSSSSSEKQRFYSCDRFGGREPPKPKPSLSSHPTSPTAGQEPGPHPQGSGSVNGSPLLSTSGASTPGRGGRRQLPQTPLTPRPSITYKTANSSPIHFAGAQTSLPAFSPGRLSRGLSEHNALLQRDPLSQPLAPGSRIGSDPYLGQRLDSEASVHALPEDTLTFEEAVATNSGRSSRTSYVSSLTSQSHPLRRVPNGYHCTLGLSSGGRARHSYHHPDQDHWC
N-type calcium channel subunits (α1B, α2δ, and β3a), sequence (P54289 25-1103 partner): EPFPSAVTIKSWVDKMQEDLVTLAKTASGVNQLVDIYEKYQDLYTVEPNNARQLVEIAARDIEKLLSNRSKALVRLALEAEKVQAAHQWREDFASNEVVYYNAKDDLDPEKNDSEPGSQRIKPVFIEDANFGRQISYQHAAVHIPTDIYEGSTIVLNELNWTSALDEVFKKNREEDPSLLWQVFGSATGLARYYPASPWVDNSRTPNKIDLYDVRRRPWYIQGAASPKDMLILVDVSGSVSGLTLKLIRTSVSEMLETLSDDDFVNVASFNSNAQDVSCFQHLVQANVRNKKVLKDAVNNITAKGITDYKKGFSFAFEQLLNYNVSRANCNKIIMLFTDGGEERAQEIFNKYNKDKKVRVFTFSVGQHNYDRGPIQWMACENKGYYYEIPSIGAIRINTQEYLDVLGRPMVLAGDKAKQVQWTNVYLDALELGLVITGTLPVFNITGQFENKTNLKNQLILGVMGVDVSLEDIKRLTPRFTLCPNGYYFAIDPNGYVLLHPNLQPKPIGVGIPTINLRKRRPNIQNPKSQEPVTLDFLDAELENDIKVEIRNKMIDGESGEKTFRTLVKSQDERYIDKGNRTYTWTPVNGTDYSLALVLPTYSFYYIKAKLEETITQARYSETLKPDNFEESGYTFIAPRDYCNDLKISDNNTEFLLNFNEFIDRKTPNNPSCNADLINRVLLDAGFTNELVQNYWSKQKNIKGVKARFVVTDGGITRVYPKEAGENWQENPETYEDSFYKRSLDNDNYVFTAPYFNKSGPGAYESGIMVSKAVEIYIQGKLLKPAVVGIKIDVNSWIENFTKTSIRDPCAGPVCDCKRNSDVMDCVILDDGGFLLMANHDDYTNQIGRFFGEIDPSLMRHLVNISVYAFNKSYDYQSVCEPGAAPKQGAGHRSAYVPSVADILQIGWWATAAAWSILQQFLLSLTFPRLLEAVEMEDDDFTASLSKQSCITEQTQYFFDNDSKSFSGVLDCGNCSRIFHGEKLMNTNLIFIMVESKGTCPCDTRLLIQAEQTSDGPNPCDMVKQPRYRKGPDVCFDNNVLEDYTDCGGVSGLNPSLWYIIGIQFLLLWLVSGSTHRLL
N-type calcium channel subunits (α1B, α2δ, and β3a), sequence (P54284 whole entry partner): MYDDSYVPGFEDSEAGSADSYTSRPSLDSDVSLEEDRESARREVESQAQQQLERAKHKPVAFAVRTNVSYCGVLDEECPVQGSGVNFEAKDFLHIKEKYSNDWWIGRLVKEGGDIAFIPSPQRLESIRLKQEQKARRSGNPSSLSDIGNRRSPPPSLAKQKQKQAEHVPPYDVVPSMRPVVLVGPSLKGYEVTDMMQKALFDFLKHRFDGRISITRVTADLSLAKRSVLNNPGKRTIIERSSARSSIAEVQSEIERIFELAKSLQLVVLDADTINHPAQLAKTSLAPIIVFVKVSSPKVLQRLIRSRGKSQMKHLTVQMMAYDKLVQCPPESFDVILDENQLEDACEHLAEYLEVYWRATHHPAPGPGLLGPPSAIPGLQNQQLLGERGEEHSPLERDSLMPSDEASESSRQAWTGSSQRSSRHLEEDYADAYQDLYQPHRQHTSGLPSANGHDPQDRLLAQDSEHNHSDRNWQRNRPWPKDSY

Compound	IC50 [1] [nM]	IC50 [2] [µM]	IC50 [3] [µM]
Cn1nc(C(F)(F)F)cc1C(=O)N[C@H]1CC[C@@](F)(S(=O)(=O)c2cc(F)cc(C(F)(F)F)c2)CC1 [Compound 327, N-((1S,4S)-4-fluoro-4-(3-fluoro-5-(trifluoromethyl)phenylsulfonyl)cyclohexyl)-1-methyl-3-(trifluoromethyl)-1Hpyrazole-5-carboxamide]	630	0.75	2.79
O=C(N[C@H]1CC[C@@](F)(S(=O)(=O)c2cc(F)cc(C(F)(F)F)c2)CC1)c1cc(C(F)(F)F)ccn1 [Compound 328, N-((1S,4S)-4-fluoro-4-(3-fluoro-5-(trifluoromethyl)phenylsulfonyl)cyclohexyl)-4-(trifluoromethyl)picolinamide]	710	2.47	> 10
CS(=O)(=O)c1cc(C(F)(F)F)ccc1C(=O)N[C@H]1CC[C@@](F)(S(=O)(=O)c2cc(F)cc(C(F)(F)F)c2)CC1 [Compound 330, N-((1S,4S)-4-fluoro-4-(3-fluoro-5-(trifluoromethyl)phenylsulfonyl)cyclohexyl)-2-(methylsulfonyl)-4-(trifluoromethyl)benzamide]	1020	0.93	8.56
CS(=O)(=O)c1cc(C(F)(F)F)cnc1C(=O)N[C@H]1CC[C@@](F)(S(=O)(=O)c2cc(F)cc(C(F)(F)F)c2)CC1 [Compound 331, N-((1S,4S)-4-fluoro-4-(3-fluoro-5-(trifluoromethyl)phenylsulfonyl)cyclohexyl)-3-(methylsulfonyl)-5-(trifluoromethyl)picolinamide]	1290	1.51	2.65
O=C(N[C@H]1CC[C@@](F)(S(=O)(=O)c2cc(F)cc(C(F)(F)F)c2)CC1)c1cn2cc(C(F)(F)F)ccc2n1 [Compound 332, N-((1S,4S)-4-fluoro-4-(3-fluoro-5-(trifluoromethyl)phenylsulfonyl)cyclohexyl)-6-(trifluoromethyl)imidazo[l,2-a]pyridine-2-carboxamide]	620	0.78	1.56
CN(C(=O)c1ccc(F)c(Cl)c1)[C@H]1CC[C@@](F)(S(=O)(=O)c2cc(F)cc(C(F)(F)F)c2)CC1 [Compound 335, 3-chloro-4-fluoro-N-((1S,4S)-4-fluoro-4-(3-fluoro-5-(trifluoromethyl)phenylsulfonyl)cyclohexyl)-N-methylbenzamide]	520	4.71	> 10

Compounds with a lower IC50 [1], results first:

IC50 [1] [nM]	IC50 [2] [µM]	IC50 [3] [µM]	Compound
360	2.39	> 10	CN(C(=O)c1ccc(F)c(C(F)(F)F)c1)[C@H]1CC[C@@](F)(S(=O)(=O)c2cc(F)cc(C(F)(F)F)c2)CC1 [Compound 334, 4-fluoro-N-((1S,4S)-4-fluoro-4-(3-fluoro-5-(trifluoromethyl)phenylsulfonyl)cyclohexyl)-N-methyl-3-(trifluorornethyl) benzamide]
350	> 10	> 10	O=C(N[C@H]1CC[C@@](F)(S(=O)(=O)c2cc(F)cc(C(F)(F)F)c2)CC1)c1ccc(F)c(Cl)c1 [Compound 329, 3-chloro-4-fluoro-N-((1S,4S)-4-fluoro-4-(3-fluoro-5-(trifluoromethyl)phenylsulfonyl)cyclohexyl) benzamide]
320	1.33	2.4	O=C(N[C@H]1CC[C@@](F)(S(=O)(=O)c2cc(F)cc(C(F)(F)F)c2)CC1)c1ccc(F)c(C(F)(F)F)c1 [Compound 325, 4-fluoro-N-((1S,4S)-4-fluoro-4-(3-fluoro-5-(trifluoromethyl)phenylsulfonyl)cyclohexyl)-3-(trifluoromethyl)benzamide]
180	0.96	1.82	O=C1c2cc(C(F)(F)F)nn2CCN1[C@H]1CC[C@@](F)(S(=O)(=O)c2cc(F)cc(C(F)(F)F)c2)CC1 [Compound 333, 5-((1S,4S)-4-fluoro-4-(3-fluoro-5-(trifluoromethyl)phenylsulfonyl)cyclohexyl)-2-(trifluoromethyl)-6,7-dihydropyrazolo[l,5-a]pyrazin-4(5H)-one]
